Experimental data taken from patent publication EP0337459A2, “Platinum complex, process for preparing same and antitumor agent” (TORAY INDUSTRIES, INC., priority 1988, dated 1989).
Where “and” joins values, the source holds several entries; their conditions need not be identical. Identical values can stand only once.

Legend:
L1210 Mouse Leukemia = assay: Antitumor activity against L1210 mouse leukemia inoculated i.p. in mice; format: in vivo, CDF₁ mouse; conditions: for Survival days (mean ± standard deviation) / T/C (%): CDF₁ mice; for Survival rate: living mice on the 30th day / mice in group
Description: Approximately 10⁵ cells of mouse leukemia L1210 which had been subcultured in DBA/2 mice were inoculated into the abdominal cavity of CDF₁ mouse (male, 6 weeks old, each group consisting of 6 to 10 mice). […] CDDP and CBDCA were tested as the positive control. Each complex tested was used in the form of a solution or suspension in 0.05% "Tween 80"-saline or in distilled water. Antitumor activity was evaluated based on the T/C value, calculated according to the following formula: [formula] The number of living mice was also recorded on the 30th day.

Slc:ICR mice = assay: Acute toxicity test in mice (LD50, Miller-Tainter method); format: in vivo; conditions: intraperitoneal, Slc:ICR mice (male), death rate on the 14th day
Description: The acute toxicity test of the compounds of the present invention to mice were carried out by using CDDP as the control. Platinum complexes to be tested was administered intraperitoneally to Slc:ICR mice (male, 5 weeks old, 6 mice/group). Each complex was used in the form of a solution or suspension in a 0.05% "Tween 80" - saline. The LD₅₀ value was calculated by the Miller-Tainter method from the death rate on the 14th day from the date of the administration.

[1] = dose 1 mg/kg i.p. on Day 1, 5 and 9
[2] = dose 10 mg/kg i.p. on Day 1, 5 and 9
[3] = dose 25 mg/kg i.p. on Day 1, 5 and 9
[4] = dose 50 mg/kg i.p. on Day 1, 5 and 9
[5] = dose 100 mg/kg i.p. on Day 1, 5 and 9
[6] = dose 200 mg/kg i.p. on Day 1, 5 and 9
[7] = dose 5 mg/kg i.p. on Day 1, 5 and 9
[8] = dose 2.5 mg/kg i.p. on Day 1, 5 and 9, 2.5 mg/kg
[9] = dose 5 mg/kg i.p. on Day 1, 5 and 9, 5 mg/kg
[10] = dose 7.5 mg/kg i.p. on Day 1, 5 and 9, 7.5 mg/kg

## N.N.O=C([O-])C1(C(=O)[O-])CCC1.[Pt+2] [CBDCA, Platinum(II) cis-diamine-1,1-cyclobutanedicarboxylate, reference compound]
L1210 Mouse Leukemia; [1]
  Survival days (mean ± standard deviation): 8.3 ± 0.5 days
  T/C (%): 98%
  Survival rate: 0/10
L1210 Mouse Leukemia; [2]
  Survival days (mean ± standard deviation): 9.3 ± 0.5 days
  T/C (%): 109%
  Survival rate: 0/10
L1210 Mouse Leukemia; [3]
  Survival days (mean ± standard deviation): 10.1 ± 1.3 days
  T/C (%): 119%
  Survival rate: 0/10
L1210 Mouse Leukemia; [4]
  Survival days (mean ± standard deviation): 13.1 ± 2.3 days
  T/C (%): 156%
  Survival rate: 0/10
L1210 Mouse Leukemia; [5]
  Survival days (mean ± standard deviation): 14.1 ± 3.7 days
  T/C (%): 166%
  Survival rate: 0/10
L1210 Mouse Leukemia; [6]
  Survival days (mean ± standard deviation): 9.6 ± 0.7 days
  T/C (%): 113%
  Survival rate: 0/10

## [Pt(trans-ℓ-1,2-diaminocyclohexane)] (3-acetyl-6-methyl-2H-pyran-2,4(3H)-dione)₂·H₂O [Example 2]
L1210 Mouse Leukemia; [1]
  Survival days (mean ± standard deviation): 8.7 ± 0.5 days
  T/C (%): 104%
  Survival rate: 0/6
L1210 Mouse Leukemia; [2]
  Survival days (mean ± standard deviation): 13.8 ± 3.6 days
  T/C (%): 164%
  Survival rate: 0/6
L1210 Mouse Leukemia; [3]
  Survival days (mean ± standard deviation): 19.7 ± 7.5 days
  T/C (%): 235%
  Survival rate: 1/6
L1210 Mouse Leukemia; [4]
  Survival days (mean ± standard deviation): 10.0 ± 1.1 days
  T/C (%): 119%
  Survival rate: 0/6
L1210 Mouse Leukemia; [5]
  Survival days (mean ± standard deviation): 6.3 ± 2.0 days
  T/C (%): 75%
  Survival rate: 0/6
L1210 Mouse Leukemia; [6]
  Survival days (mean ± standard deviation): 2.8 ± 1.6 days
  T/C (%): 33%
  Survival rate: 0/6
Slc:ICR mice
  LD₅₀ Value: 61 mg/kg

## [Pt(trans-ℓ-1,2-diaminocyclohexane)] (3-acetyl-6-methyltetrahydropyran-2,4-dione)₂·H₂O [Example 1]
L1210 Mouse Leukemia; [1]
  Survival days (mean ± standard deviation): 8.5 ± 0.5 days
  T/C (%): 101%
  Survival rate: 0/6
L1210 Mouse Leukemia; [2]
  Survival days (mean ± standard deviation): 11.5 ± 1.2 days
  T/C (%): 137%
  Survival rate: 0/6
L1210 Mouse Leukemia; [3]
  Survival days (mean ± standard deviation): 14.2 ± 3.2 days
  T/C (%): 169%
  Survival rate: 0/6
L1210 Mouse Leukemia; [4]
  Survival days (mean ± standard deviation): 17.0 ± 3.0 days
  T/C (%): 202%
  Survival rate: 0/6
L1210 Mouse Leukemia; [5]
  Survival days (mean ± standard deviation): 15.5 ± 5.0 days
  T/C (%): 185%
  Survival rate: 0/6
L1210 Mouse Leukemia; [6]
  Survival days (mean ± standard deviation): 6.0 days
  T/C (%): 71%
  Survival rate: 0/6
Slc:ICR mice
  LD₅₀ Value: 98 mg/kg

## [Pt(trans-ℓ-1,2-diaminocyclohexane)](3-acetyl-6-methyl-2H-pyran-2,4(3H)-dione)(NO₃)·H₂O [Example 14]
L1210 Mouse Leukemia; [1]
  Survival days (mean ± standard deviation): 8.2 ± 0.4 days
  T/C (%): 98%
  Survival rate: 0/6
L1210 Mouse Leukemia; [2]
  Survival days (mean ± standard deviation): 11.3 ± 0.8 days
  T/C (%): 135%
  Survival rate: 0/6
L1210 Mouse Leukemia; [3]
  Survival days (mean ± standard deviation): 19.0 ± 8.5 days
  T/C (%): 226%
  Survival rate: 2/6
L1210 Mouse Leukemia; [4]
  Survival days (mean ± standard deviation): 18.0 ± 6.2 days
  T/C (%): 214%
  Survival rate: 1/6
L1210 Mouse Leukemia; [5]
  Survival days (mean ± standard deviation): 9.5 ± 1.2 days
  T/C (%): 113%
  Survival rate: 0/6
L1210 Mouse Leukemia; [6]
  Survival days (mean ± standard deviation): 5.0 days
  T/C (%): 60%
  Survival rate: 0/6
Slc:ICR mice
  LD₅₀ Value: 73 mg/kg

## [Pt(trans-ℓ-1,2-diaminocyclohexane)](3-acetyl-6-methyltetrahydropyran-2,4-dione) (C₃H₇COO)·H₂O [Example 5]
L1210 Mouse Leukemia; [1]
  Survival days (mean ± standard deviation): 8.8 ± 1.6 days
  T/C (%): 104%
  Survival rate: 0/6
L1210 Mouse Leukemia; [2]
  Survival days (mean ± standard deviation): 10.2 ± 1.6 days
  T/C (%): 120%
  Survival rate: 0/6
L1210 Mouse Leukemia; [3]
  Survival days (mean ± standard deviation): 11.8 ± 1.7 days
  T/C (%): 139%
  Survival rate: 0/6
L1210 Mouse Leukemia; [4]
  Survival days (mean ± standard deviation): 16.3 ± 5.0 days
  T/C (%): 192%
  Survival rate: 0/6
L1210 Mouse Leukemia; [5]
  Survival days (mean ± standard deviation): 14.2 ± 5.0 days
  T/C (%): 167%
  Survival rate: 0/6
Slc:ICR mice
  LD₅₀ Value: 111 mg/kg

## [Pt(trans-ℓ-1,2-diaminocyclohexane)](3-acetyl-6-methyltetrahydropyran-2,4-dione)(CH₃COO)·H₂O [Example 3]
L1210 Mouse Leukemia; [1]
  Survival days (mean ± standard deviation): 9.2 ± 1.0 days
  T/C (%): 110%
  Survival rate: 0/6
L1210 Mouse Leukemia; [7]
  Survival days (mean ± standard deviation): 12.8 ± 3.0 days
  T/C (%): 152%
  Survival rate: 0/6
L1210 Mouse Leukemia; [2]
  Survival days (mean ± standard deviation): 14.0 ± 2.6 days
  T/C (%): 167%
  Survival rate: 0/6
L1210 Mouse Leukemia; [3]
  Survival days (mean ± standard deviation): 23.0 ± 6.4 days
  T/C (%): 274%
  Survival rate: 2/6
L1210 Mouse Leukemia; [4]
  Survival days (mean ± standard deviation): 15.2 ± 4.1 days
  T/C (%): 181%
  Survival rate: 0/6
L1210 Mouse Leukemia; [5]
  Survival days (mean ± standard deviation): 7.7 ± 1.5 days
  T/C (%): 91%
  Survival rate: 0/6
L1210 Mouse Leukemia; [6]
  Survival days (mean ± standard deviation): 3.0 ± 2.0 days
  T/C (%): 36%
  Survival rate: 0/6
Slc:ICR mice
  LD₅₀ Value: 61 mg/kg

## cis-diamminedichloroplatinum (II) [CDDP, reference compound]
L1210 Mouse Leukemia; [8]
  Survival days (mean ± standard deviation): 15.2 ± 1.9 days and 12.0 ± 3.0 days and 13.0 ± 3.1 days and 10.5 ± 1.8 days
  T/C (%): 181% and 143% and 153% and 125%
L1210 Mouse Leukemia; [9]
  Survival days (mean ± standard deviation): 18.5 ± 6.0 days and 14.3 ± 2.9 days and 18.2 ± 0.4 days and 15.5 ± 1.4 days
  T/C (%): 220% and 170% and 214% and 185%
  Survival rate: 1/6 and 0/6
L1210 Mouse Leukemia; [10]
  Survival days (mean ± standard deviation): 17.0 ± 2.2 days and 15.5 ± 2.1 days and 20.2 ± 4.8 days and 22.3 ± 3.9 days
  T/C (%): 202% and 185% and 238% and 266%
  Survival rate: 0/6 and 1/6
L1210 Mouse Leukemia; dose 2.5 mg/kg i.p. on Day 1, 5 and 9
  Survival rate: 0/6
Slc:ICR mice
  LD₅₀ Value: 15.3 mg/kg
